Experimental data from PubChem BioAssay AID1845210 (Molecular Pharmacology Branch, DTP, NCI, 2023).

Test system: NCI-H226 complex tumor spheroids, viability
Assay: Anticancer human tumor NCI-H226 cell line growth inhibition;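 note: spheroids exposed to compound for 7 days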;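 for viability, T/C: 100% = DMSO vehicle control viability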
Conditions: for IC50: curve of first compound; for viability, T/C: stronger effect = lower value
Source text: Multicellular complex tumor spheroid response to DNA repair inhibitors in combination with DNA-damaging drugs
This study explores the anticancer activities of DNA-damaging drugs and inhibitors of DNA damage repair, both as single agents and in combinations. Complex tumor spheroids comprised of malignant cells, endothelial cells and mesenchymal stem cells served as an in vitro model for human solid tumors. This model system incorporates physiologically relevant features and patient-derived or established malignant cell lines with clinically relevant genetic alterations from many tumor types. Twenty-six patient-derived or established malignant cell lines were evaluated representing sarcoma, melanoma, small cell lung cancer (SCLC), non-small cell lung cancer (NSCLC), as well as bladder, ovarian and pancreatic cancers. The concentration ranges selected for each drug and investigational agent were based upon clinically achievable concentrations if the clinical Cmax of the agent was known.
Compounds. The drugs and compounds olaparib (NSC753686), talazoparib (NSC767125), berzosertib (NSC777718), elimusertib (NSC800525), nedisertib (NSC802822), VX-984 (NSC792969), AZD-1390 (NSC803789), temozolomide (NSC362856), topotecan (NSC609699), trabectedin (NSC813783), staurosporine (NSC755774), and gemcitabine (NSC613327) were obtained from the National Cancer Institute (NCI) Developmental Therapeutics Program Chemical Repository. The FDA-approved anticancer drug set is available from the Developmental Therapeutics Program at https://dtp.cancer.gov/organization/dscb/obtaining/available_plates.htm. […] The stock solutions were prepared in dimethyl sulfoxide (DMSO, Sigma-Aldrich, St. Louis, MO, cat. D2650) at 400-fold the tested concentration and stored at -70 degrees C. Prior to their use, the stock solutions were diluted in fresh medium and the final DMSO concentration in the assay was 0.25% (v/v). All drugs and investigational agents were tested over a range starting from a high concentration at or near the clinical Cmax and decreasing in half-log increments. If the clinical Cmax for an agent had not been determined, the highest concentration tested was 10 microM.
Cell Lines. The patient-derived cancer cell (PDC) lines: 156681-154-R-J1-PDC, 283228-195-R-J1-PDC, 287954-098-R-J1-PDC, 292921-168-R-J2-PDC, 349418-098-R-PDC, 425362-245-T-J1-PDC, 556581-035-R-J1-PDC, and BL0293-F563-PDC were received from the NCI Patient-Derived Models Repository (PDMR, https://pdmr.cancer.gov). The established cell lines HS-SY-2 (RRID:CVCL_8719), MPNST, and SYO-1 (RRID:CVCL_7146) were obtained from the Sloan Kettering Institute. The alveolar soft parts sarcoma cell line ASPS-1 (RRID:CVCL_S738) was established at the NCI and grown from internal seed stocks. The following established cell lines were purchased from the American Type Culture Collection (ATCC, Manassas, VA): G-401 (ATCC, cat. CRL-1441, RRID:CVCL_0270), SW982 (ATCC, cat. HTB-93, RRID:CVCL_1734), VA-ES-BJ (ATCC, cat. CRL-2138, RRID:CVCL_1785), NCI-H719 (ATCC, cat. CRL-5837, RRID:CVCL_1582), NCI-H196 (ATCC, cat. CRL-5823, RRID:CVCL_1509), NCI-H841 (ATCC, cat. CRL-5845, RRID:CVCL_1595), NCI-H1618 (ATCC, cat. CRL-5879, RRID:CVCL_1480), NCI-H1876 (ATCC, cat. CRL-5902, RRID:CVCL_1503), DMS 114 (ATCC, cat. CRL-2066; RRID:CVCL_1174), NCI-H211 (ATCC, cat. CRL-5824; RRID:CVCL_1529), and SW 1271 (ATCC, cat. CRL-2177, RRID:CVCL_1716). The small cell lung cancer cell line COR-L88 was purchased from Sigma-Aldrich (cat. 92031917-1VL, RRID:CVCL_1141). The non-small cell lung cancer cell lines NCI-H226 (RRID:CVCL_1544) and NCI-H322M (RRID:CVCL_1557) were established at the NCI and grown from internal seed stocks. Pooled donor human umbilical vein endothelial cells (HUVEC, Lonza, cat. CC-2519) and human mesenchymal stem cells (hMSC, Lonza, cat. PT-2501) were purchased from Lonza (Walkersville, MD).
Cell Culture. All cells were maintained in an incubator at 37 degrees C and 5% CO2 with 95% humidity. […]

In the case of `CNCc1ccc(-c2cc(-c3nc(-c4ccc(S(=O)(=O)C(C)C)cc4)cnc3N)on2)cc1` + COc1cc2c(cc1O)CCNC21CSC2c3c(OC(C)=O)c(C)c4c(c3C(COC1=O)N1C(O)C3Cc5cc(C)c(OC)c(O)c5C(C21)N3C)OCO4, the IC50 (second compound 30 pM) is reported as 1610 nM, the IC50 (second compound 94.9 pM) is reported as 1480 nM and the IC50 (second compound 0.0003 µM) is reported as 1500 nM. The IC50 (second compound 0.000949 µM) was 1020 nM, the IC50 (second compound 0.003 µM) was under 9.49 nM and the viability, T/C (second compound 30 pM, first compound 0.00949 µM) was 89.5%. The viability, T/C (second compound 30 pM, first compound 0.03 µM) was 96.1%, the viability, T/C (second compound 30 pM, first compound 0.0949 µM) was 103% and the viability, T/C (second compound 30 pM, first compound 0.3 µM) was 123%. It also gave a viability, T/C (second compound 30 pM, first compound 0.949 µM) of 91.9%, a viability, T/C (second compound 30 pM, first compound 3 µM) of 0.9% and a viability, T/C (second compound 94.9 pM, first compound 0.00949 µM) of 85.9%. The viability, T/C (second compound 94.9 pM, first compound 0.03 µM) was 99.4%, the viability, T/C (second compound 94.9 pM, first compound 0.0949 µM) was 105% and the viability, T/C (second compound 94.9 pM, first compound 0.3 µM) was 127%. The viability, T/C (second compound 94.9 pM, first compound 0.949 µM) was 80.9%, the viability, T/C (second compound 94.9 pM, first compound 3 µM) was 0.45% and the viability, T/C (second compound 0.0003 µM, first compound 0.00949 µM) was 89.7%. For the same compound, the viability, T/C (second compound 0.0003 µM, first compound 0.03 µM) was 105%, the viability, T/C (second compound 0.0003 µM, first compound 0.0949 µM) was 106% and the viability, T/C (second compound 0.0003 µM, first compound 0.3 µM) was 138%. It also gave a viability, T/C (second compound 0.0003 µM, first compound 0.949 µM) of 82.9%, a viability, T/C (second compound 0.0003 µM, first compound 3 µM) of 0.44% and a viability, T/C (second compound 0.000949 µM, first compound 0.00949 µM) of 88.1%. The viability, T/C (second compound 0.000949 µM, first compound 0.03 µM) was 94.1%, the viability, T/C (second compound 0.000949 µM, first compound 0.0949 µM) was 124% and the viability, T/C (second compound 0.000949 µM, first compound 0.3 µM) was 91.4%. The viability, T/C (second compound 0.000949 µM, first compound 0.949 µM) was 53.9%, the viability, T/C (second compound 0.000949 µM, first compound 3 µM) was 0.33% and the viability, T/C (second compound 0.003 µM, first compound 0.00949 µM) was 2.12%. It also gave a viability, T/C (second compound 0.003 µM, first compound 0.03 µM) of 1.88%, a viability, T/C (second compound 0.003 µM, first compound 0.0949 µM) of 3% and a viability, T/C (second compound 0.003 µM, first compound 0.3 µM) of 1.46%. The viability, T/C (second compound 0.003 µM, first compound 0.949 µM) was 0.37% and the viability, T/C (second compound 0.003 µM, first compound 3 µM) was 0.31%.
